Experimental data published in patent publication US9845321B2, “1,3-dihydro-2H-benzimidazol-2-one derivatives substituted with heterocycles as respiratory syncytial virus antiviral agents” (JANSSEN SCIENCES IRELAND UC, priority 2012, dated 2017).

What was measured:
rgRSV224 virus = test: Antiviral activity: rgRSV224 (GFP-expressing RSV) replication in HeLa cells, GFP expression measured three days post-virus exposure; format: cell-based; details: human respiratory syncytial virus, 72 h, read-out: WT activity pEC50 (converted)
Description: (§1) Black 96-well clear-bottom microtiter plates (Corning, Amsterdam, The Netherlands) were filled in duplicate using a customized robot system with serial 4-fold dilutions of compound in a final volume of 50 μl culture medium [RPMI medium without phenol red, 10% FBS, 0.04% gentamycin (50 mg/ml) and 0.5% DMSO]. Then, 100 μl of a HeLa cell suspension (5×10^4 cells/ml) in culture medium was added to each well followed by the addition of 50 μl rgRSV224 (MOI=0.02) virus in culture medium using a multidrop dispenser (Thermo Scientific, Erembodegem, Belgium). rgRSV224 virus is an engineered virus that includes an additional GFP gene (Hallak et al, 2000) and was in-licensed from the NIH (Bethesda, Md., USA). Medium, virus- and mock-infected controls were included in each test. Cells were incubated at 37° C. in a 5% CO2 atmosphere. Three days post-virus exposure, viral replication was quantified by measuring GFP expression in the cells by a MSM laser microscope (Tibotec, Beerse, Belgium). The EC50 was defined as the 50% inhibitory concentration for GFP expression. In parallel, compounds were incubated for three days in a set of white 96-well microtitier plates (Corning) and the cytotoxicity of compounds in HeLa cells was determined by measuring the ATP content of the cells using the ATPlite kit (PerkinElmer, Zaventem, Belgium) according to the manufacturer's instructions. The CC50 was defined as the 50% concentration for cytotoxicity.

in vitro = format: cell-based; details: human
Description: as §1

Compound | EC50 (rgRSV224 virus) [nM] | CC50 at 3 days (in vitro) [nM] | melting point [°C]
COc1ccc(-n2c(=O)n(Cc3cc4cc(Cl)ccc4n3CCCC#N)c3cnccc32)c(C)c1 [Compound P20, 4-(5-chloro-2-((1-(4-methoxy-2-methylphenyl)-2-oxo-1H-imidazo[4,5-c]pyridin-3(2H)-yl)methyl)-1H-indol-1-yl)butanenitrile] | 0.398 | > 100000 | 172.59
CC(C)CCn1c(Cn2c(=O)n(-c3nccs3)c3ccncc32)nc2nc(Cl)ccc21 [Compound P22, 3-((5-chloro-1-isopentyl-1H-imidazo[4,5-b]pyridin-2-yl)methyl)-1-(thiazol-2-yl)-1H-imidazo[4,5-c]pyridin-2(3H)-one] | 3.98 | 25100 | 231.23
N#CCCCn1c(Cn2c(=O)n(-c3ccncn3)c3ccncc32)cc2cc(Cl)ccc21 [Compound P24, 4-(5-chloro-2-((2-oxo-1-(pyrimidin-4-yl)-1H-imidazo[4,5-c]pyridin-3(2H)-yl)methyl)-1H-indol-1-yl)butanenitrile] | 10 | > 50100 | 229.17
CC(C)CCn1c(Cn2c(=O)n(-c3nccs3)c3ccc(F)cc32)nc2nc(Cl)ccc21 [Compound P25, 3-((5-chloro-1-isopentyl-1H-imidazo[4,5-b]pyridin-2-yl)methyl)-5-fluoro-1-(thiazol-2-yl)-1H-benzo[d]imidazol-2(3H)-one] | 15.8 | > 50100 | 264.42
CC(C)CCn1c(Cn2c(=O)n(-c3ccncc3F)c3ccncc32)nc2nc(Cl)ccc21 [Compound P26, 3-((5-chloro-1-isopentyl-1H-imidazo[4,5-b]pyridin-2-yl)methyl)-1-(3-fluoropyridin-4-yl)-1H-imidazo[4,5-c]pyridin-2(3H)-one] | 25.1 | > 100000 | 123.79
N#CCCCn1c(Cn2c(=O)n(-c3nccs3)c3ccc(F)cc32)cc2cc(Cl)ccc21 [Compound P27, 4-(5-chloro-2-((6-fluoro-2-oxo-3-(thiazol-2-yl)-2,3-dihydro-1H-benzo[d]imidazol-1-yl)methyl)-1H-indol-1-yl)butanenitrile] | 31.6 | > 100000 | 238.29
COc1ccc(-n2c(=O)n(Cc3cc4cc(Cl)ccc4n3CCCCF)c3cnccc32)cc1 [Compound P32, 3-((5-chloro-1-(4-fluorobutyl)-1H-indol-2-yl)methyl)-1-(4-methoxy-phenyl)-1H-imidazo[4,5-c]pyridin-2(3H)-one] | 3.98 | 79400 | 163
O=c1n(Cc2cc3cc(Cl)ccc3n2CCCCF)c2cnccc2n1-c1ccc(Cl)cc1 [Compound P34, 3-((5-chloro-1-(4-fluorobutyl)-1H-indol-2-yl)methyl)-1-(4-chlorophenyl)-1H-imidazo[4,5-c]pyridin-2(3H)-one] | 31.6 | > 100000 | 168
COc1ccc(-n2c(=O)n(Cc3cc4cc(Cl)ccc4n3CCCS(C)(=O)=O)c3cnccc32)cc1 [Compound P35, 3-((5-chloro-1-(3-(methylsulfonyl)propyl)-1H-indol-2-yl)methyl)-1-(4-methoxyphenyl)-1H-imidazo[4,5-c]pyridin-2(3H)-one] | 0.316 | 31600 | 215
Cn1ccc(-n2c(=O)n(Cc3cc4cc(Cl)ccc4n3CCCC#N)c3cnccc32)n1 [Compound P36, 4-(5-chloro-2-((1-(1-methyl-1H-pyrazol-3-yl)-2-oxo-1H-imidazo[4,5-c]pyridin-3(2H)-yl)methyl)-1H-indol-1-yl)butanenitrile] | 1.58 | 63100 | 244
N#CCCCn1c(Cn2c(=O)n(-c3ncco3)c3ccncc32)cc2cc(Cl)ccc21 [Compound P37, 4-(5-chloro-2-((1-(oxazol-2-yl)-2-oxo-1H-imidazo[4,5-c]pyridin-3(2H)-yl)methyl)-1H-indol-1-yl)butanenitrile] | 1.58 | > 100000 | 234
Cn1ccc(-n2c(=O)n(Cc3cc4cc(Cl)ccc4n3CCCCF)c3cnccc32)n1 [Compound P38, 3-((5-chloro-1-(4-fluorobutyl)-1H-indol-2-yl)methyl)-1-(1-methyl-1H-pyrazol-3-yl)-1H-imidazo[4,5-c]pyridin-2(3H)-one] | 1.58 | > 100000 | 169.3
N#CCCCn1c(Cn2c(=O)n(-c3ccc(Cl)cc3)c3ccncc32)cc2cc(Cl)ccc21 [Compound P39, 4-(5-chloro-2-((1-(4-chlorophenyl)-2-oxo-1H-imidazo[4,5-c]pyridin-3(2H)-yl)methyl)-1H-indol-1-yl)butanenitrile] | 3.98 | 25100 | 210.8
